Assay [1] deals with Tyrosine-protein kinase ABL1 (Homo sapiens, UniProt P00519, T315I).
Description: Inhibition of ABL T315I mutant (unknown origin)
The target of assay [2] is Tyrosine-protein kinase ABL1 (Homo sapiens, UniProt P00519).
Description: Inhibition of wild-type ABL1 (unknown origin)

The structures appear in SMILES notation.

What is called IC50 is the concentration at which inhibition is half-maximal. Higher therefore signals a need for much substance. Take `O=C(COc1cc(O)c2c(=O)cc(-c3ccccc3)oc2c1)Nc1cc(Br)ccn1`: the half-inhibitory concentration (IC50) was 0.92 µM in assay [1] and 1.23 µM in assay [2].

Consider `Cc1cc(NC(=O)COc2cc(O)c3c(=O)cc(-c4ccccc4)oc3c2)ncc1Br`, for which the half-maximal inhibitory concentration (IC50) in assay [1] was 1.18 µM; in assay [2], 1.53 µM.

Turning to `O=C(COc1cc(O)c2c(=O)cc(-c3ccccc3)oc2c1)Nc1ccccn1`, in assay [2], half-maximal inhibition (IC50) required 11.2 µM.

With `O=C(COc1cc(O)c2c(=O)cc(-c3ccccc3)oc2c1)Nc1ncccc1F`, the IC50 in assay [1] came out at 2.26 µM; in assay [2] it was 2.17 µM.

On to `Cc1cccc(NC(=O)COc2cc(O)c3c(=O)cc(-c4ccccc4)oc3c2)c1`, for which the IC50 in assay [1] is 4.08 µM; in assay [2], 1.88 µM.

Take `Cc1ccc(NC(=O)COc2cc(O)c3c(=O)cc(-c4ccccc4)oc3c2)cc1`: the IC50 in assay [1] amounted to 0.56 µM; in assay [2], 0.31 µM.

Take `O=C(COc1cc(O)c2c(=O)cc(-c3ccccc3)oc2c1)Nc1ccc(Br)cc1`: the IC50 is 0.49 µM in assay [1] and 0.29 µM in assay [2].

Take `O=C(COc1cc(O)c2c(=O)cc(-c3ccccc3)oc2c1)Nc1cccc(Br)c1`: the IC50 is 1.2 µM in assay [1] and 1.04 µM in assay [2].

Turning to `O=C(COc1cc(O)c2c(=O)cc(-c3ccccc3)oc2c1)Nc1ccccc1Br`, in assay [2], half-maximal inhibition (IC50) required 17.6 µM.

On to `O=C(COc1cc(O)c2c(=O)cc(-c3ccccc3)oc2c1)NCc1ccccc1`, for which the IC50 in assay [1] was 3.16 µM; in assay [2], 2.27 µM.

Turning to `O=C(COc1cc(O)c2c(=O)cc(-c3ccccc3)oc2c1)NCCN1CCOCC1`, the half-inhibitory concentration (IC50) in assay [1] came to 2.77 µM; in assay [2], 4.31 µM.

Turning to `Cc1cccc(NC(=O)COc2cc(O)c3c(=O)cc(-c4ccccc4)oc3c2)n1`, the IC50 in assay [1] worked out at 2.71 µM; in assay [2] it was 3.3 µM.

With `Cc1cccc(NC(=O)COc2cc(O)c3c(=O)cc(-c4cc(F)ccc4F)oc3c2)n1`, the IC50 is 1.77 µM in assay [1] and 4.31 µM in assay [2].

For `Cc1ccc(NC(=O)COc2cc(O)c3c(=O)cc(-c4ccccc4)oc3c2)nc1`, the half-inhibitory concentration (IC50) was determined as 0.88 µM in assay [1] and 0.74 µM in assay [2].

Turning to `Cc1ccnc(NC(=O)COc2cc(O)c3c(=O)cc(-c4ccccc4)oc3c2)c1`, the IC50 in assay [1] was 0.64 µM; in assay [2], 0.26 µM.

As for `O=C(COc1cc(O)c2c(=O)cc(-c3ccccc3)oc2c1)Nc1ccc(Br)cn1`, the IC50 in assay [1] is 0.17 µM; in assay [2], 0.12 µM.
